Data as given in patent US20220009920A1 (GB005, Inc., priority 2020, published 2022).

Legend:
Experiment in all cases: Large panel kinase profiling
Assay type in all cases: biochemical
Conditions in all cases: 1 μM test article, 1 mM ATP
BLK = BLK (Homo sapiens, UniProt P51451)
Experimental: (§1) Large panel kinase profiling was performed at AssayQuant Technologies, Inc. 260 Cedar Hill Street, Marlborough, Mass. 01752 using the PhosphoSens® CSox-Sensor platform using 1 μM test article concentration and 1 mM ATP concentration (www.assayquant.com). Reactions were run in Corning, half-area 96-well, white flat round bottom polystyrene NBS microplates (Cat. #3642) after sealing using optically-clear adhesive film (TopSealA-Plus plate seal, PerkinElmer), applied with either a roller or a paddle to eliminate evaporation and resulting drift. The standard total reaction volume was 50 μL. All experiments were ran at 30° C. to control for fluctuations in ambient temperature. Plates were read from the top in kinetic mode (readings taken every 1 min), monitoring fluorescence intensity with filters using Ex 360 nm and Em 485 nm and a band width of 40 and 20 nm, respectively, and a gain of 80. Data analysis was performed using either Graphpad Prism or Gene Data Screener software.

FLT3 = molecular target: T1, FLT3 (Homo sapiens, UniProt P36888)
T1 construct: AssayQuant Technologies, Inc. (service provider)
T1 sequence (P36888 27-993): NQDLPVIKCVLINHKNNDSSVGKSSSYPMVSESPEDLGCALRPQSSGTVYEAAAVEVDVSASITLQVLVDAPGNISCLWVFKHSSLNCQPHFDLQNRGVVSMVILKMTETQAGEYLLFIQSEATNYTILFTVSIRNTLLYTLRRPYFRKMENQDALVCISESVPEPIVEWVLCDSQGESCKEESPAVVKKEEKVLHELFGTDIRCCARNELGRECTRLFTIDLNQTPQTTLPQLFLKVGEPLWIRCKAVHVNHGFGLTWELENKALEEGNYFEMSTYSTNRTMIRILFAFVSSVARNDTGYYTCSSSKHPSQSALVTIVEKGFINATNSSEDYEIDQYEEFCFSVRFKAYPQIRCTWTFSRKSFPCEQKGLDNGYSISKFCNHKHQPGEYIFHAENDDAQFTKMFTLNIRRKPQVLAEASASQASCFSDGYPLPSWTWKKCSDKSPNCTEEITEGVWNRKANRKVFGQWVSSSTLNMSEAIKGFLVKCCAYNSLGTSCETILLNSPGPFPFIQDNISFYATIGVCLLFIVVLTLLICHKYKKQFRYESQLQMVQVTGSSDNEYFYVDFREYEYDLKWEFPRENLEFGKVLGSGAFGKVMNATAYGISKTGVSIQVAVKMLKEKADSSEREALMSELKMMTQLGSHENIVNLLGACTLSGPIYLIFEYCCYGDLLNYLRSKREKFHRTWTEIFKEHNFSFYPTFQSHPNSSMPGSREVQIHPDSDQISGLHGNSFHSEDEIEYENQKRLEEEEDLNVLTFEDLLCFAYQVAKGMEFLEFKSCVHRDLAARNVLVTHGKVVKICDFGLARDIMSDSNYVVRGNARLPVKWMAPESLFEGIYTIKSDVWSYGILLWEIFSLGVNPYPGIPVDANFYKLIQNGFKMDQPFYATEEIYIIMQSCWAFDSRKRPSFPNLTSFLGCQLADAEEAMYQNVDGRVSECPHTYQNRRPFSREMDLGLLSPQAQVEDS
Experimental: as §1

MAP3K3 = molecular target: T2, MAP3K3 (Homo sapiens, UniProt Q99759)
T2 construct: AssayQuant Technologies, Inc. (service provider)
T2 sequence (Q99759 1-626): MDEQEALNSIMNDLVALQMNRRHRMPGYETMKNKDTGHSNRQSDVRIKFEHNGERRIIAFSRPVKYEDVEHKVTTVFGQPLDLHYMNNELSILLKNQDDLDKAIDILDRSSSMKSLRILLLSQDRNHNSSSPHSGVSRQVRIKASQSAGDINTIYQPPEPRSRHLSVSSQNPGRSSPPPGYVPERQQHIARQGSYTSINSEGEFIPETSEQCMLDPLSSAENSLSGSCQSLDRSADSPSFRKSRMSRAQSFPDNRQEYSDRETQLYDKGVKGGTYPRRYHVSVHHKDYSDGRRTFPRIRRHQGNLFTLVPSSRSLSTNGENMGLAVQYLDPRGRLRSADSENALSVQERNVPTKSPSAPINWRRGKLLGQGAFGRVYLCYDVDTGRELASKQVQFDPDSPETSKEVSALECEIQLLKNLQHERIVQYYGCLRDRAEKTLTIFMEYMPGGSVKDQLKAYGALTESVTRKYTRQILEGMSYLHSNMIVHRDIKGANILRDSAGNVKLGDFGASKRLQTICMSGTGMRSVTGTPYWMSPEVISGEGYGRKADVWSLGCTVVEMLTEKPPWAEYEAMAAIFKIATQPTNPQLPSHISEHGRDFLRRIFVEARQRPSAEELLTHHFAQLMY
Experimental: as §1

EPHB1 = molecular target: T3, EPHB1 (Homo sapiens, UniProt P54762)
T3 sequence (P54762 18-984): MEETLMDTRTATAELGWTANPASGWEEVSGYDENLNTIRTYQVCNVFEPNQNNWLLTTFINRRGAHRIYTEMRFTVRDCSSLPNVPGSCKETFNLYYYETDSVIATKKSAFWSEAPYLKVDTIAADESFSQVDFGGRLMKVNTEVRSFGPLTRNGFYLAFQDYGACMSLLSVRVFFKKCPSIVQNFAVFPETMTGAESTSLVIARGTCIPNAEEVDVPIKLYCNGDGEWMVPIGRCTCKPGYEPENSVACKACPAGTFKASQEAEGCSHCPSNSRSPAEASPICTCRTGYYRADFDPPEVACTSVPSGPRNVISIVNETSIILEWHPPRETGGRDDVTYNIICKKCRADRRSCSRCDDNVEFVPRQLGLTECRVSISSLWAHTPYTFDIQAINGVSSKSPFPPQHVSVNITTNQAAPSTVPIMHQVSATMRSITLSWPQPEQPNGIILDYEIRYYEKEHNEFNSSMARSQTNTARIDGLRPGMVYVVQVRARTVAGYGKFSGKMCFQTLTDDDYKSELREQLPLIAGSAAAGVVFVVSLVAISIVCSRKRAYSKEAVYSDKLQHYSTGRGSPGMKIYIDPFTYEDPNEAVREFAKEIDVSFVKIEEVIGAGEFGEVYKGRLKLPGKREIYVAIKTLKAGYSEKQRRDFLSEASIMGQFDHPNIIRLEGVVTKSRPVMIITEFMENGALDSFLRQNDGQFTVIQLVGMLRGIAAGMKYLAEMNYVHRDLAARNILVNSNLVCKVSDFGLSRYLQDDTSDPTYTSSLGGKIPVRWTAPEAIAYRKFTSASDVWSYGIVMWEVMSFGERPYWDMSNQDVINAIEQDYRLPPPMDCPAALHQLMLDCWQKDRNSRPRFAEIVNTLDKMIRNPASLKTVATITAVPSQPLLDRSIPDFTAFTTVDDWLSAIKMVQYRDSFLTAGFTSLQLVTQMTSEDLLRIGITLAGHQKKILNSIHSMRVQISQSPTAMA
Experimental: as §1

Chain of BLK (P51451 whole entry): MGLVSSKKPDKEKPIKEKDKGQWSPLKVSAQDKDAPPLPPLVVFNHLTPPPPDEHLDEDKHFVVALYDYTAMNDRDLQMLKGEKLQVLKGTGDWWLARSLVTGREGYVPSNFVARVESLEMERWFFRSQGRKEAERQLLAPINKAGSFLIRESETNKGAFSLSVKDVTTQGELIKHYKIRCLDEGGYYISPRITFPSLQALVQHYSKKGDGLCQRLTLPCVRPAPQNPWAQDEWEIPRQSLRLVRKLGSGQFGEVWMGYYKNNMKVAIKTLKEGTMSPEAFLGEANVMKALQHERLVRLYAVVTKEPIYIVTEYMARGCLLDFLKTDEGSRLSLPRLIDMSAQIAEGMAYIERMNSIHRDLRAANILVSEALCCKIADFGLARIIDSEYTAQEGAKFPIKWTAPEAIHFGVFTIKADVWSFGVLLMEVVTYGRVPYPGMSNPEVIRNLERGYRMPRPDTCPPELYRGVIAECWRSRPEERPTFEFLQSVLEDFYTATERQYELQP

SMILES	inhibition at 1 µM (BLK)	inhibition at 1 µM (FLT3)	inhibition at 1 µM (MAP3K3)	inhibition at 1 µM (EPHB1)
C=CC(=O)N1CCCC(c2c(F)cc(C(N)=O)c3[nH]c4c(c23)CCCCC4)C1 (single isomer, unassigned) [Compound 5-6]	30.3%	2.2%	-7%	14.5%
C=CC(=O)N1CCC[C@@H](c2c(F)cc(C(N)=O)c3[nH]c4c(c23)CC2(CC4)CC2)C1 [Compound 6-2, (S)-5-(1-acryloylpiperidin-3-yl)-6-fluoro-1,2,4,9-tetrahydrospiro[carbazole-3,1′-cyclopropane]-8-carboxamide]	65.7%	-9.4%	-3.6%	12.4%
C=CC(=O)N1CCC[C@@H](c2c(F)cc(C(N)=O)c3[nH]c4c(c23)CCC4)C1 [Compound 10-2, (S)-8-(1-acryloylpiperidin-3-yl)-7-fluoro-1,2,3,4-tetrahydrocyclo-penta[b]indole-5-carboxamide]	-2.3%	-4.6%	19.9%	-3.1%
